From patent publication EP4796540A2, “N-SULFONAMIDE NITROGEN-CONTAINING FUSED HETEROCYCLIC COMPOUND, AND APPLICATION THEREOF” (priority 2023, dated 2025)
Where “and” joins values, the source holds several entries; their conditions need not be identical. Equal values may be shown once.

Tested on: human gastric cancer NUGC-3 xenograft
Assay: In vivo efficacy study in human gastric cancer NUGC-3 xenograft mouse model
Parameters: species or system NUNU mice
Conditions: mice; for Tumor volume (mm^3) (at 19 days): Mean ± SEM
Experimental: 1. Experimental purpose: To test the in vivo anti-tumor activity of compounds in the subcutaneous human gastric cancer NUGC-3 xenograft model in female NUNU mice. 2. Experimental materials: Animals: 6 to 8 weeks old female NUNU mice; Reagents:
Cpd-A vehicle: 0.2% HPC, 0.5% Tween80 in water (w/v/v); Cpd-2 vehicle: 5% DMSO/10% Solutol HS 15/85% pH 4.65 ± 0.10 acetate buffer.
Cell culture: NUGC-3 cells were cultured in RPMI-1640 medium containing 10% FBS.
Molding and grouping: NUGC-3 cells in the exponential growth phase (5 × 10^6) were harvested, resuspended in 0.2 mL of PBS and Matrigel (1:1), and then inoculated subcutaneously into the right flank of NUNU mice to establish a subcutaneous xenograft model. Mice were observed daily for healthy status and tumor growth after cell inoculation. On the 5th day after inoculation, 36 animals were selected, grouped, and the tumor volume of the animals in the group was approximately 150.0 mm^3. The study was divided into 6 groups, with 6 mice in each group, and the administration was performed on the same day (see Table 10).
4. Experimental design: Table 10 is the grouping and administration information for the efficacy experiment. Mice in the G1 group were orally administered vehicle control (5% DMSO/10% Solutol HS 15/85% pH 4.65 ± 0.10 acetate buffer) once a day for a total of 19 days. Mice in the G2 group were orally administered Cpd-A once a day at a dose of 50 mg/kg for a total of 19 days. Mice in the G3 group were orally administered Cpd-A once a day at a dose of 100 mg/kg for a total of 19 days. Mice in the G4 group were orally administered Cpd-2 once a day at a dose of 25 mg/kg for a total of 19 days. Mice in the G5 group were orally administered Cpd-2 once a day at a dose of 50 mg/kg for a total of 19 days. Mice in the G6 group were orally administered Cpd-2 once a day at a dose of 100 mg/kg for a total of 19 days. Table 10. In vivo efficacy study design of NUGC-3 xenograft mouse model
Experimental observation: The health status and mortality of the animals were monitored daily. Routine checks included observing the effect of tumor growth and drug treatment on animals' normal behavior such as mobility, food and water consumption, body weight gain/loss, eye/hair matting and any other abnormal effect. The number of deaths and side effects of the animals in the group were recorded based on the number of the animals in each group. Clinical symptoms observed during the trial were recorded in the raw data. Tumor volume calculation formula: Tumor volume (mm^3) = 0.5 × (tumor long diameter × tumor short diameter^2). During the research process, the entire administration process as well as tumor and body weight measurements were conducted in a Laminar Flow Cabinet.
Statistical analysis: Tumor volume and animal body weight results are expressed in Mean ± SEM. Tumor volumes between different groups were statistically compared and analyzed. All statistical analyses were completed in GraphPad Prism 8.0. The one-way ANOVA method was used to compare whether there was a significant difference in tumor volume or tumor weight between groups, where p ≥ 0.05 was considered as having no significant difference, p < 0.05 was considered as having a significant difference, and p < 0.001 was considered as having an extremely significant difference.

Compound: [2H]C([2H])([2H])Oc1nc(C(=O)NS(C)(=O)=O)ccc1NCC#Cc1cc2c(N[C@@H]3CCN(C)C[C@@H]3F)cccn2c1CC(F)(F)F [Cpd-2, 5-((3-(8-(((3S,4R)-3-Fluoro-1-methylpiperidin-4-yl)amino)-3-(2,2,2-trifluoroethyl)indolizin-2-yl)prop-2-yn-1-yl)amino)-6-(methoxy-d3)-N-(methylsulfonyl)picolinamide]
- TGI (%) (at 19 days) (25 mg/kg PO QD*19 Days): 65.1%
- Tumor volume (mm^3) (at 19 days) (25 mg/kg PO QD*19 Days): 615.1 mm^3 and 615.1 ± 157.6 mm^3
- TGI (%) (at 19 days) (50 mg/kg PO QD*19 Days): 96.1%
- Tumor volume (mm^3) (at 19 days) (50 mg/kg PO QD*19 Days): 202.2 mm^3 and 202.2 ± 57.9 mm^3
- TGI (%) (at 19 days) (100 mg/kg PO QD*19 Days): 103.6%
- Tumor volume (mm^3) (at 19 days) (100 mg/kg PO QD*19 Days): 102.5 mm^3 and 102.5 ± 42.1 mm^3
